Measurements from US20140314791A1, “METHODS OF TREATING CANCER” (DANA-FARBER CANCER INSTITUTE, INC., priority 2012, published 2014).

What was measured:
[1] = system: γH2AX; test: Western blot analysis of γH2AX after CHEK1 inhibitor treatment; format: cell-based; details: 3 h at the GI50 concentration
[2] = system: Lkb1-wt (634, 855, and 857) cells; test: Cell proliferation assay with CHEK1 inhibitors (CCK-8), Lkb1-wt; format: cell-based, mouse; details: Lkb1-wt cells, mean, 3 days; read-out: 50% growth inhibition (GI50) concentration
[3] = system: Lkb1-null (t2, t4, and t5) cells; test: Cell proliferation assay with CHEK1 inhibitors (CCK-8), Lkb1-null; format: cell-based, mouse
[4] = system: Lkb1-null cells; test: In vitro study of combination treatments with AZD7762; format: cell-based, mouse; details: data not shown
[5] = system: Lkb1-null t2, t4, and t5 cells; test: dTTP rescue of shDtymk growth phenotype; format: cell-based, mouse; details: 150 μM dTTP
Method: (B) Morphology of Lkb1-null t2, t4, and t5 cells transduced with shGFP or shDtymk-1 and then cultured with or without additional 150 μM dTTP in medium for 3 days.
(§1) Next it was determined whether adding dTTP to the media could rescue cell death after Dtymk knockdown. Three Lkb1-null cell lines were transduced with shGFP or shDtymk-1 and then selectively cultured in puromycin medium in the presence or absence of 150 μM dTTP for 3 days (Taricani et al., 2010). […] Expression of DTYMK in the shDtymk-1 cells was not determined because the remaining cells were too few for RNA and protein extraction (FIG. 4B).

[6] = system: Lkb1-wt and Lkb1-null cells; test: 3H-dTTP incorporation into genomic DNA; format: cell-based, mouse; details: 0.25 μCi 3H-dTTP, 6 h
Method: Lkb1-wt and Lkb1-null cells were plated into 96 well plates with 4000 cells/well in 100 μL medium for overnight culturing then incubated with 0.25 μCi ^3H-dTTP (Perkin Elmer, NET221H250UC) for 6 h and used 0.25 μCi ^3H-deoxythymidine (Perkin Elmer, NET221H250UC) as positive and 0.25 μCi^3H-dTTP/non-cells (medium alone) as negative controls. Cells were washed with PBS, trypsinized, and DNA was captured with a cell harvester on glass fiber filters Filtermat A (Perkin Elmer, #1450-421), which was then placed into a liquid scintillation counting container for counting on a scintillation beta-counter. The data represent mean±SD for 6 replicates.
as §1

Q: With O=c1[nH]c2ccc(Cl)cc2c(N[C@@H]2CN3CCC2CC3)c1-c1nc2ccccc2[nH]1 [CHIR124] as the molecule, how does the “phosphorylation of H2AX (Western blot)” value [1] read?
A: induced phosphorylation of H2AX

Q: What about the GI50 [2] of the same molecule?
A: 56 nM

Q: What about the “inhibition of Lkb1-null cells stronger than Lkb1-wt cells” value ([3]; GI50 Lkb1-wt versus Lkb1-null) of the same molecule?
A: 3 fold

Q: What about the GI50 ([3]; Lkb1-null cells, mean, 3 days, read-out: 50% growth inhibition (GI50) concentration) of the same molecule?
A: 19 nM

Q: Which “synergy with AZD7762 in the treatment of Lkb1-null cells” value [4] does the source give for Nc1ccn([C@@H]2O[C@H](CO)[C@@H](O)C2(F)F)c(=O)n1 [Gemcitabine] here?
A: moderately synergistic

Q: Which results are given for Cc1cn([C@H]2C[C@H](O)[C@@H](COP(=O)(O)OP(=O)(O)OP(=O)(O)O)O2)c(=O)[nH]c1=O [dTTP]?
A: toxicity of dTTP to shGFP-transduced cells [5]: not to be toxic; growth of shDtymk-transduced Lkb1-null cells with exogenous dTTP ([5]; 3 days): grew as well as shGFP-transduced cells; passage of radiolabeled dTTP through the cell membrane (incorporation into genomic DNA) [6]: passed through the cell membrane
